Test results taken from patent US10640402B2, “Use of oxidizing and non-oxidizing biocides for control of bacteria tolerant to stabilized-oxidant treatment” (Ecolab USA Inc., priority 2012, dated 2020).

Assays:
[1] = tested on: Cl2-urea tolerant bacteria; assay: Biocide screening against Cl2-urea tolerant bacteria (Table 4); format: cell-based
[2] = tested on: Cl2-urea tolerant bacteria; assay: Laboratory screening using process water treated with urea-stabilized chlorine (Table 5); format: cell-based; details: for control of Cl2-urea tolerant bacteria (in words): typical use rates, Table 5 screening
[3] = tested on: urease-producing microorganisms; assay: Antimicrobial screening of biocides for control of urease-producing microorganisms; format: cell-based
[4] = tested on: process water microbial population (paper mill); assay: Initial laboratory screening of paper mill process water treated with NaOCl, before the urea-stabilized chlorine program; format: cell-based; details: 5 ppm Cl2
Description: (§1) The process water stream of a paper mill was treated using a urea-stabilized chlorine program.
(§2) Process water samples were challenged with untreated process water (1% v/v) after the 4-hours samples were plated. […] In Table 1, preservation from urea-stabilized chlorine was observed prior to the application of this program to the mill water system and development of the tolerant population.

[5] = tested on: microbial population tolerant to urea-stabilized chlorine; assay: Repeat laboratory screening of process water after 10 months of urea-stabilized chlorine treatment; format: cell-based; details: 5 ppm Cl2
Description: as §1, §2

urease = assay: Chlorine residual (TRO) with and without urease enzyme; format: physicochemical; details: control without urease
[6] = 24-hour, challenged with untreated process water (1% v/v) after 4-hour plating

Compound | CFU/mL, 24-hour ([1]; 25 ppm product) | CFU/mL, 24-hour ([1]; 100 ppm product) | control of Cl2-urea tolerant bacteria (in words) [2] | CFU/mL, 1-hour ([2]; 25 ppm product) | CFU/mL, 4-hour ([2]; 25 ppm product) | CFU/mL, 24-hour ([2]; 25 ppm product) | CFU/mL, 1-hour ([2]; 100 ppm product) | CFU/mL, 4-hour ([2]; 100 ppm product) | CFU/mL, 24-hour ([2]; 100 ppm product) | control of urease-producing microorganisms (in words) [3] | other results
O=[N+]([O-])C(Br)(CO)CO [Bronopol] | 1.0 × 10^5 CFU/mL | 1.3 × 10^4 CFU/mL | not effective |  |  |  |  |  |  |  | 
N#CC(Br)(Br)C(N)=O [Dibromonitrilopropionamide, dibromonitrilopropionamide] | 4.2 × 10^3 CFU/mL | <100 CFU/mL | particularly effective | 1.4 × 10^5 CFU/mL | 7.0 × 10^4 CFU/mL | 3.0 × 10^4 CFU/mL | 6.0 × 10^2 CFU/mL | 2.0 × 10^2 CFU/mL | 3.0 × 10^2 CFU/mL | effective control | 
O=CCCCC=O [Glutaraldehyde, glutaraldehyde] | 100 CFU/mL | <100 CFU/mL | particularly effective | 1.0 × 10^6 CFU/mL | 8.5 × 10^3 CFU/mL | 1.0 × 10^2 CFU/mL | 1.0 × 10^2 CFU/mL | 1.0 × 10^2 CFU/mL | 2 × 10^2 CFU/mL | effective control | 
[Na+].[O-]Cl [NaOCl, sodium hypochlorite] |  |  | also effective, but was required at higher concentrations |  |  |  |  |  |  | also effective | CFU/mL, Initial Screening, 1-hour ([4]; 1-hour): 3.4 × 10^5 CFU/mL; CFU/mL, Initial Screening, 4-hour ([4]; 4-hour): 3.6 × 10^6 CFU/mL; CFU/mL, Initial Screening, 24-hour [4, 6]: 1.9 × 10^7 CFU/mL; CFU/mL, Repeat Screening, 1-hour ([5]; 1-hour): 2.8 × 10^6 CFU/mL; CFU/mL, Repeat Screening, 4-hour ([5]; 4-hour): 6.0 × 10^6 CFU/mL; CFU/mL, Repeat Screening, 24-hour [5, 6]: 3.6 × 10^7 CFU/mL; CFU/mL, 24-hour ([1]; 2.5 ppm as Cl2): 5.1 × 10^5 CFU/mL; CFU/mL, 24-hour ([1]; 10.0 ppm as Cl2): <100 CFU/mL; CFU/mL, 1-hour ([2]; 2.5 ppm as Cl2): 1.9 × 10^5 CFU/mL; CFU/mL, 4-hour ([2]; 2.5 ppm as Cl2): 2.0 × 10^6 CFU/mL; CFU/mL, 24-hour ([2]; 2.5 ppm as Cl2): 1.0 × 10^7 CFU/mL; CFU/mL, 1-hour ([2]; 10.0 ppm as Cl2): 2.0 × 10^2 CFU/mL; CFU/mL, 4-hour ([2]; 10.0 ppm as Cl2): 2.0 × 10^2 CFU/mL; CFU/mL, 24-hour ([2]; 10.0 ppm as Cl2): 5.0 × 10^2 CFU/mL; TRO (as ppm Cl2), 1-hour (urease; 1-hour): 4.6 ppm Cl2; TRO (as ppm Cl2), 4-hour (urease; 4-hour): 4.5 ppm Cl2; TRO (as ppm Cl2), 24-hour (urease; 24-hour): 4.1 ppm Cl2
